Test system: melanocyte stem cells (MeSCs)
Assay: RNA-seq of FACS-purified MeSCs
Format: in vivo, mouse
Settings: 12 hours after RTX injection
Protocol: Examination of marker gene expression for diverse skin cell types confirmed successful enrichment for MeSCs (FIG. 12D). To uncover major molecular changes, Gene Ontology (GO) enrichment analysis was conducted (FIG. 5B). A list of known genes associated with MeSC proliferation and differentiation was curated (FIG. 5C, FIG. 12E). Moreover, a list of genes previously denoted for cell cycle entry was utilized to assess if cell cycle regulators are altered at the transcriptional level (FIG. 12F). Some of these key changes were also verified by quantitative RT-PCR (qRT-PCR) (FIG. 12G). […]
MeSCs were purified using FACS from control and stressed mice skin samples at telogen based on their expression of CD117 [7], starting from a population that is negative for CD140a, CD45, Sca1, and CD34 [57]. […] Single-end sequencing reads were obtained using Illumina NextSeq 500 platform. Sequencing reads from RNA-seq libraries were trimmed using Trim Galore! […] Reads with alignment quality <Q30 were discarded. Gene expression levels were normalized and differential genes were calculated using DEseq2 package in R [60]. […] Transcripts Per Kilobase Million (TPM) calculated from count tables of Control MeSC samples were used to determine the expression levels of adrenergic receptors and glucocorticoid receptor shown in FIG. 2C.

## C=C(C)[C@]12C[C@@H](C)[C@@]34O[C@](Cc5ccccc5)(O[C@@H]1[C@@H]3C=C(COC(=O)Cc1ccc(O)c(OC)c1)C[C@]1(O)C(=O)C(C)=C[C@@H]41)O2 [RTX, resiniferatoxin]
  transcriptome changes in MeSCs: upregulate proliferation and differentiation programs

From patent publication US20230035479A1, “METHODS AND COMPOSITIONS FOR REDUCING HAIR GREYING” (President and Fellows of Harvard College, priority 2019, published 2023)
